Assay: Pharmacokinetics in beagle dogs
Assay type: in vivo
Settings: male, dog, plasma, po, intragastric 2.5 mg/kg
Description: 4.2 Pharmacokinetics in Beagle Dogs
3 male beagle dogs weighing 9-12 kg were intragastrically administered with the test compounds at a dosage of 2.5 mg/kg after adaptive feeding for a period of time.
The animals to be tested (male beagle dogs) were fasted for 12 h before administration and fed 4 h after administration, and water was freely drunk before, after and during the experiment.
After intragastric administration, about 0.5 mL of blood was collected from forelimb vein at 0.25 h (15 min), 0.5 h (30 min), 1 h, 1.5 h, 2 h, 4 h, 6 h, 8 h, 10 h, 24 h, 30 h, 48 h and 72 h, and placed in an EDTA-K2 anticoagulation tube. Blood samples were transferred to a centrifuge within 30 min, and centrifuged at 4000 rpm for 10 min at 4° C. to separate the plasma. All plasma samples were collected and immediately stored at −20° C. for testing.
50 μL of the plasma sample to be tested was added with 300 μL of acetonitrile solution containing an internal standard (20 ng/mL diazepam), shaken and mixed well for 5 min, and centrifuged at 13,000 rpm for 10 min. 75 μL of supernatant was taken and diluted with 75 μL of ultrapure water. After being mixed well, 1 μL of the resulting sample was taken for LC/MS/MS determination, and a chromatogram was recorded.
Oral exposure of the compounds disclosed herein was evaluated by in vivo pharmacokinetic experiments in beagle dogs.

CC1(C)CCC(CN2CCN(c3ccc(C(=O)NS(=O)(=O)c4ccc(NC[C@H]5COCCO5)c([N+](=O)[O-])c4)c(Oc4cnc5[nH]ccc5c4)c3)CC2)=C(c2ccc(C(F)(F)F)cc2Cl)C1 [Compound 8-1]
AUC(0-inf): 27700 ± 14200 ng·h/mL | Cmax: 1430 ± 769 ng/mL | MRT last: 17.2 ± 1.62 h | Tmax: 3.33 ± 1.16 h | AUC(0-t) (read-out: AUC0-72 h): 26300 ± 13600 ng·h/mL | half-life (read-out: T½ (converted)): 19.5 ± 1.64 h

Source: patent US20250257064A1, “TRIFLUOROMETHYL-SUBSTITUTED SULFONAMIDE AS BCL-2-SELECTIVE INHIBITOR” (Chia Tai Tianqing Pharmaceutical Group Co., Ltd., priority 2018, published 2025)
